Test [1] deals with T1, Rat M4 (Rattus norvegicus, UniProt P08485).
T1 construct: expressed in transfected cells; host or cells: CHO-K1 (ATCC), stably co-expressing chimeric G protein Gqi5
T1 sequence (P08485 1-478): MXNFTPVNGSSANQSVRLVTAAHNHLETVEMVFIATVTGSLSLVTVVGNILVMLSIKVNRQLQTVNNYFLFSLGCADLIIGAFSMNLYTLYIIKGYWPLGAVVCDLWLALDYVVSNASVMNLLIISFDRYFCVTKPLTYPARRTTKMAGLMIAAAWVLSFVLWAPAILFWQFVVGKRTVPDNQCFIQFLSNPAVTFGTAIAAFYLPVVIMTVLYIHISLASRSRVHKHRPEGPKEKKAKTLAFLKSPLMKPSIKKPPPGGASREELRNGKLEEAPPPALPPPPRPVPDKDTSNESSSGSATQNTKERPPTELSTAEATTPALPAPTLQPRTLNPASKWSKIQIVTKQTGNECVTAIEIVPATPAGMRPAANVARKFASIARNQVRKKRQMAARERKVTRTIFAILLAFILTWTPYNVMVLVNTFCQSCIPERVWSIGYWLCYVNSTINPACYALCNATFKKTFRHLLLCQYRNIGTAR
Put plainly: mAChR M4 cell-based functional assay (calcium flux, antagonist mode vs EC80 acetylcholine), rat M4/Gqi5/CHO-K1 cells. The following applies: for remaining activity at 30 µM: CHO-K1, % ACh maximum at 30 μM, rat M4, read-out: Rat M4 Emin (%); for IC50: decrease of response elicited by EC80 acetylcholine, rat M4/Gqi5 CHO-K1 cells. Put shortly:
(§1)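 CHO-K1 cells stably expressing human or rat M4 with Gqi5, Fluo-4 loaded; calcium measured by fluorescence ratio on FDSS. Compound added, then EC20 acetylcholine at 143 s and EC80 at 268 s; IC50 from decrease of EC80 response, four-parameter logistic fit.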
For orientation: Calcium flux is commonly read through the fluorescence of an indicator in the cells.

Test [2] addresses T2, Human M4 (Homo sapiens, UniProt P08173).
T2 construct: expressed in transfected cells; host or cells: CHO-K1 (ATCC), stably co-expressing chimeric G protein Gqi5
T2 sequence (P08173 1-479): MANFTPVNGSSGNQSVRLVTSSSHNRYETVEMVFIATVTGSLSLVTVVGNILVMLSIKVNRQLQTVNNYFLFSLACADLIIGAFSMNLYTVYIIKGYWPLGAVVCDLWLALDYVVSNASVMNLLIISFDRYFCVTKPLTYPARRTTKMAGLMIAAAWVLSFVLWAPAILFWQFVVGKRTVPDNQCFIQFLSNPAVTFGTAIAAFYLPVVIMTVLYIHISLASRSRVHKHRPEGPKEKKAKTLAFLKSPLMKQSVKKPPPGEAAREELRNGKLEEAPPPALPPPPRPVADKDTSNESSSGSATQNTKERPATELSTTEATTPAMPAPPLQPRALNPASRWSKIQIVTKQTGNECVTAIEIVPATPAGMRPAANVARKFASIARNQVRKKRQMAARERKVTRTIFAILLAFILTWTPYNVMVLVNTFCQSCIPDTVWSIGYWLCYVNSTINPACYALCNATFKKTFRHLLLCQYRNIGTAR
The experiment in a line: mAChR M4 cell-based functional assay (calcium flux, antagonist mode vs EC80 acetylcholine), human M4/Gqi5/CHO-K1 cells. The following applies: for remaining activity at 30 µM: CHO-K1, % ACh maximum at 30 μM, human M4, read-out: Human M4 Emin (%); for IC50: decrease of response elicited by EC80 acetylcholine, human M4/Gqi5 CHO-K1 cells. Put shortly:
as §1

Consider `Cc1cc(CN2C[C@H]3C[C@H](Nc4ccc(S(=O)(=O)C5CCCCC5)nn4)C[C@H]3C2)ccc1F` [compound 38, (3aR,5s,6aS)-N-(6-(cyclohexylsulfonyl)pyridazin-3-yl)-2-(4-fluoro-3-methylbenzyl)octahydrocyclopenta[c]pyrrol-5-amine], for which, in test [1], the remaining activity at 30 µM came out at 3% and the IC50 (in general, the concentration that gives 50% inhibition) is 591 nM. Further, in test [2], the remaining activity at 30 µM stood at 4% and the IC50 stood at 188 nM.

As for `O=S(=O)(c1ccccc1)c1nnc(N[C@H]2C[C@@H]3CN(CC4CCOCC4)C[C@@H]3C2)cc1NC1CC1` [compound 39, N^5-cyclopropyl-6-(phenylsulfonyl)-N^3-((3aR,5s,6aS)-2-((tetrahydro-2H-pyran-4-yl)methyl)octahydrocyclopenta[c]pyrrol-5-yl)pyridazine-3,5-diamine], the remaining activity at 30 µM in test [1] and in test [2] was 4% each time. Moreover, the IC50 in test [1] was 288 nM; in test [2] it was 70.7 nM.

On to `Cc1cccnc1CN1C[C@H]2C[C@H](Nc3ccc(S(=O)(=O)c4ccccc4)nn3)C[C@H]2C1` [compound 40, (3aR,5s,6aS)-2-((3-methylpyridin-2-yl)methyl)-N-(6-(phenylsulfonyl)pyridazin-3-yl)octahydrocyclopenta[c]pyrrol-5-amine], for which, in test [1], the remaining activity at 30 µM was found to be 15% and the half-inhibitory concentration (IC50) was 2890 nM. Moreover, in test [2], the remaining activity at 30 µM is 5% and the IC50 amounted to 221 nM.

With `O=S(=O)(c1ccccc1)c1ccc(N[C@H]2C[C@@H]3CN(Cc4ncccc4C(F)(F)F)C[C@@H]3C2)nn1` [compound 41, (3aR,5s,6aS)-N-(6-(phenylsulfonyl)pyridazin-3-yl)-2-((3-(trifluoromethyl)pyridin-2-yl)methyl)octahydrocyclopenta[c]pyrrol-5-amine], in test [1], the remaining activity at 30 µM worked out at 20% and the half-inhibitory concentration (IC50) amounted to 5780 nM. Moreover, in test [2], the remaining activity at 30 µM turned out to be 6% and the IC50 is 742 nM.

For `Cc1cc2c(cc1CN1C[C@H]3C[C@H](Nc4ccc(S(=O)(=O)c5ccccc5)nn4)C[C@H]3C1)OCO2` [compound 42, (3aR,5s,6aS)-2-((6-methylbenzo[d][1,3]dioxol-5-yl)methyl)-N-(6-(phenylsulfonyl)pyridazin-3-yl)octahydrocyclopenta[c]pyrrol-5-amine], in test [1], the remaining activity at 30 µM came out at 14% and the IC50 stood at 3110 nM. Besides, in test [2], the remaining activity at 30 µM is 3% and the IC50 stood at 1000 nM.

Consider `Cc1cccnc1CN1C[C@H]2C[C@H](Nc3ccc(S(=O)(=O)C4CCCCC4)nn3)C[C@H]2C1` [compound 43, (3aR,5s,6aS)-N-(6-(cyclohexylsulfonyl)pyridazin-3-yl)-2-((3-methylpyridin-2-yl)methyl)octahydrocyclopenta[c]pyrrol-5-amine], for which the remaining activity at 30 µM in test [1] was 11%; in test [2], 5%. Besides, the IC50 in test [1] worked out at 1260 nM; in test [2], 76.3 nM.

`Cc1cc2c(cc1CN1C[C@H]3C[C@H](Nc4ccc(S(=O)(=O)C5CCCCC5)nn4)C[C@H]3C1)OCO2` [compound 44, (3aR,5s,6aS)-N-(6-(cyclohexylsulfonyl)pyridazin-3-yl)-2-((6-methylbenzo[d][1,3]dioxol-5-yl)methyl)octahydrocyclopenta[c]pyrrol-5-amine]: in test [1], the remaining activity at 30 µM worked out at 6% and the IC50 was 2050 nM. In test [2], the remaining activity at 30 µM is 3% and the IC50 came out at 720 nM.

`Cc1cc(Br)cnc1CN1C[C@H]2C[C@H](Nc3ccc(S(=O)(=O)C4CCCCC4)nn3)C[C@H]2C1` [compound 45, (3aR,5s,6aS)-2-((5-bromo-3-methylpyridin-2-yl)methyl)-N-(6-(cyclohexylsulfonyl)pyridazin-3-yl)octahydrocyclopenta[c]pyrrol-5-amine]: the remaining activity at 30 µM in test [1] came out at 3%; in test [2], 4%. Moreover, the 50% inhibitory concentration (IC50) in test [1] stood at 292 nM; in test [2] it was 20.3 nM.

Turning to `O=S(=O)(c1ccc(N[C@H]2C[C@@H]3CN(CC4(O)CCOCC4)C[C@@H]3C2)nn1)C1CCCCC1` [compound 46, 4-(((3aR,5s,6aS)-5-((6-(cyclohexylsulfonyl)pyridazin-3-yl)amino)hexahydrocyclopenta[c]pyrrol-2(1H)-yl)methyl)tetrahydro-2H-pyran-4-ol], the remaining activity at 30 µM in test [1] came to 27%; in test [2], 9%. The IC50 was greater than 10000 nM in test [1] and 1230 nM in test [2].

For the molecule `O=S(=O)(c1ccc(N[C@H]2C[C@@H]3CN(Cc4ccc5[nH]ccc5c4)C[C@@H]3C2)nn1)C1CCCCC1` [compound 47, (3aR,5s,6aS)-2-((1H-indol-5-yl)methyl)-N-(6-(cyclohexylsulfonyl)pyridazin-3-yl)octahydrocyclopenta[c]pyrrol-5-amine], in test [1], the remaining activity at 30 µM was 9% and the IC50 worked out at 1570 nM. Further, in test [2], the remaining activity at 30 µM came out at 4% and the IC50 amounted to 116 nM.

As to `O=S(=O)(c1ccc(N[C@H]2C[C@@H]3CN(Cc4ccc5cc[nH]c5c4)C[C@@H]3C2)nn1)C1CCCCC1` [compound 48, (3aR,5s,6aS)-2-((1H-indol-6-yl)methyl)-N-(6-(cyclohexylsulfonyl)pyridazin-3-yl)octahydrocyclopenta[c]pyrrol-5-amine], in test [1], the remaining activity at 30 µM stood at 9% and the IC50 amounted to 4540 nM. In test [2], the remaining activity at 30 µM worked out at 3% and the IC50 was determined as 183 nM.

Take `CC(C)(C)CCN1C[C@H]2C[C@H](Nc3ccc(S(=O)(=O)C4CCCCC4)nn3)C[C@H]2C1` [compound 49, (3aR,5s,6aS)-N-(6-(cyclohexylsulfonyl)pyridazin-3-yl)-2-(3,3-dimethylbutyl)octahydrocyclopenta[c]pyrrol-5-amine]: in test [1], the remaining activity at 30 µM was found to be 4% and the IC50 was 63.8 nM. Besides, in test [2], the remaining activity at 30 µM turned out to be 3% and the IC50 came out at 5.75 nM.

Turning to `CC(C)(C)CCN1C[C@H]2C[C@H](Nc3ccc(S(=O)(=O)c4ccccc4)nn3)C[C@H]2C1` [compound 50, (3aR, 5s,6aS)-2-(3,3-dimethylbutyl)-N-(6-(phenylsulfonyl)pyridazin-3-yl)octahydrocyclopenta[c]pyrrol-5-amine], in test [1], the remaining activity at 30 µM was 4% and the IC50 turned out to be 130 nM. Also, in test [2], the remaining activity at 30 µM came out at 3% and the IC50 worked out at 18 nM.

As to `CC1(C)CC(N2C[C@H]3C[C@H](Nc4ccc(Cl)nn4)C[C@H]3C2)CCO1` (stereo partly drawn) [compound 51, (3aR,5s,6aS)-N-(6-chloropyridazin-3-yl)-2-(2,2-dimethyltetrahydro-2H-pyran-4-yl)octahydrocyclopenta[c]pyrrol-5-amine], the remaining activity at 30 µM in test [1] was 38%; in test [2], 9%. The IC50 in test [1] was greater than 10000 nM; in test [2], 8560 nM.

In the case of `CC1(C)CC(N2C[C@H]3C[C@H](Nc4ccc(-c5ccccc5F)nn4)C[C@H]3C2)CCO1` (stereo partly drawn) [compound 52, (3aR,5s,6aS)-2-(2,2-dimethyltetrahydro-2H-pyran-4-yl)-N-(6-(2-fluorophenyl)pyridazin-3-yl)octahydrocyclopenta[c]pyrrol-5-amine], in test [1], the remaining activity at 30 µM came out at 6% and the IC50 was 776 nM. Further, in test [2], the remaining activity at 30 µM was 3% and the IC50 was 12.1 nM.

Regarding `CC1(C)CC(N2C[C@H]3C[C@H](Nc4ccc(-c5cccc(F)c5)nn4)C[C@H]3C2)CCO1` (stereo partly drawn) [compound 53, (3aR,5s,6aS)-2-(2,2-dimethyltetrahydro-2H-pyran-4-yl)-N-(6-(3-fluorophenyl)pyridazin-3-yl)octahydrocyclopenta[c]pyrrol-5-amine], in test [1], the remaining activity at 30 µM was found to be 5% and the IC50 is 295 nM. Also, in test [2], the remaining activity at 30 µM was 3% and the IC50 came out at 9.28 nM.
